Patent publication US9414596B2, “Metalloenzyme inhibitor compounds” (Viamet Pharmaceuticals, Inc., priority 2012, dated 2016)
Like-named read-outs stand apart in the source and are kept apart here.

System: C. albicans
Assay: Minimum Inhibitory Concentration (MIC) (C. albicans), CLSI M27-A2
Type: cell-based
Conditions: Candida albicans, 48 h, read-out: Candida MIC Rating
Method: A. Minimum Inhibitory Concentration (MIC) (C. albicans) Compounds of the present disclosure were assessed for their ability to inhibit the growth of common strains of fungus, C. albicans using a standardized procedure (CLSI M27-A2). Stock solutions of the test compounds and standards were prepared in DMSO at 1,600 μg/mL (C. albicans). Eleven, serial, one-half dilutions of compounds were prepared in 96-well plates in RPMI+MOPS. The assay concentration ranges were 8-0.001 μg/mL (C. albicans). Cell suspensions of C. albicans were prepared and added to each well at concentrations of approximately 3.7×10^3 colony-forming-units per milliliter (cfu/mL). All testing was in duplicate. The inoculated plates were incubated for approximately 48 h at 35±1° C. At the completion of incubation the wells of each plate were evaluated visually for the presence of fungal growth. […] For QC purposes C. krusei isolate ATCC 6258 (4.0×10^3 cfu/mL) was included in the VOR assay.

SMILES | MIC | MIC (C. albicans, approximately 48 h at 35±1° C., MIC = about 50% growth reduction, visual)
OC(Cn1cnnn1)(c1ccc(F)cc1F)C(F)(F)c1ccc(-c2ccc(OCC(F)(F)C(F)(F)F)cc2)cn1 (stereo not drawn) [Example 12, 2-(2,4-Difluorophenyl)-1,1-difluoro-1-(5-(4-(2,2,3,3,3-pentafluoropropoxy)phenyl)pyridin-2-yl)-3-(1H-tetrazol-1-yl)propan-2-ol] | < 0.5 µg/mL | 
OC(Cc1cc[nH]n1)(c1ccc(F)cc1F)C(F)(F)c1ccc(-c2ccc(OC(F)(F)F)cc2)cn1 (stereo not drawn) [Example 15, 2-(2,4-Difluorophenyl)-1,1-difluoro-3-(1H-pyrazol-3-yl)-1-(5-(4-(trifluoromethoxy)phenyl)-pyridin-2-yl)propan-2-ol] | < 0.5 µg/mL | 
O=P(O)(O)OC(Cn1cnnn1)(c1ccc(F)cc1F)C(F)(F)c1ccc(-c2ccc(OCC(F)(F)F)cc2)cn1 (stereo not drawn) [Example 58, 2-(2,4-difluorophenyl)-1,1-difluoro-3-(1H-tetrazol-1-yl)-1-(5-(4-(2,2,2-trifluoroethoxy)phenyl)pyridin-2-yl)propan-2-yl dihydrogen phosphate] |  | < 0.5 µg/mL
